In brackets after ≈: the same amount, converted by molar mass.

Experiment in all cases: In-vitro activity against dermatophytes, MIC
Holding throughout (format): cell-based

The subject of one experiment is Microsporum cookie. The conditions noted are these: 2 isolates.
The next experiment relates to Trichophyton violaceum. The conditions noted are these: 3 isolates.
Another experiment has as its system Microsporum canis. The conditions noted are these: 5 isolates.
Experiment [1] has as its system Trichophyton mentagrophytes. The conditions noted are these: 18 isolates.
In another experiment the test system is Trichophyton tonsurans. The conditions noted are these: 16 isolates.
A further experiment relates to Trichophyton rubrum. The conditions noted are these: 20 isolates.
Another experiment has as its system Microsporum gypseum. The conditions noted are these: 5 isolates.
The test system of another experiment is Epidermophyton floccosum. The conditions noted are these: 5 isolates.
In the next experiment the test system is Trichophyton soudanense. The conditions noted are these: 3 isolates.

The MIC is the least concentration at which growth counts as inhibited. A word on the MIC50: it is the lowest concentration that inhibits either 50% of growth or 50% of the strains tested, depending on the study. The term MIC90 denotes the lowest concentration that inhibits either 90% of growth or 90% of the strains tested, depending on the study. With `CCC(C)n1ncn(-c2ccc(N3CCN(c4ccc(OCC5COC(Cn6cncn6)(c6ccc(Cl)cc6Cl)O5)cc4)CC3)cc2)c1=O` (stereo not drawn) [ITC, Itraconazole], in the experiment on Microsporum cookie, the “MIC Range, Microsporum cookie” value fell in the range of 4 to 8 µg/mL. The MIC with Microsporum cookie (Microsporum, read-out: MIC GM, Microsporum cookie) was determined as 6 µg/mL (≈ 8.5 µM); in the experiment with Trichophyton violaceum (Trichophyton violaceum, read-out: MIC GM, Trichophyton violaceum), 3.3 µg/mL (≈ 4.68 µM); with Microsporum canis (Microsporum canis, read-out: MIC GM, Microsporum canis), 1.23 µg/mL (≈ 1.74 µM); in experiment [1] (Trichophyton mentagrophytes, read-out: MIC GM, Trichophyton mentagrophytes), 1.68 µg/mL (≈ 2.38 µM); with Trichophyton tonsurans (Trichophyton tonsurans, read-out: MIC GM, Trichophyton tonsurans), 1.65 µg/mL (≈ 2.33 µM); in the experiment with Trichophyton rubrum (Trichophyton rubrum, read-out: MIC GM (geometric mean of the MICs), Trichophyton rubrum), 1.96 µg/mL (≈ 2.77 µM). Further, the MIC came out at 3.68 µg/mL (≈ 5.22 µM) with Microsporum gypseum (Nannizzia gypsea, read-out: MIC GM, Microsporum gypseum); 0.226 µg/mL (≈ 0.32 µM) with Epidermophyton floccosum (Epidermophyton floccosum, read-out: MIC GM, Epidermophyton floccosum); 3.42 µg/mL (≈ 4.85 µM) in the experiment with Trichophyton soudanense (Trichophyton soudanense, read-out: MIC GM, Trichophyton soudanense). In addition, the “MIC Range, Trichophyton violaceum” value against Trichophyton violaceum was in the range of 2 to 8 µg/mL. Besides, in the experiment with Microsporum canis, the “MIC Range, Microsporum canis” value was 0.25 to 8 µg/mL. The “MIC Range, Trichophyton mentagrophytes” value in [1] was in the range of 0.125 to 4 µg/mL. Further, the MIC50 in [1] (Trichophyton mentagrophytes) came to 2 µg/mL (≈ 2.83 µM); in the experiment on Trichophyton tonsurans (Trichophyton tonsurans) it was 2 µg/mL (≈ 2.83 µM); against Trichophyton rubrum (Trichophyton rubrum, MIC at which 50% of the isolates were inhibited) it was 2 µg/mL (≈ 2.83 µM). The MIC90 in experiment [1] (Trichophyton mentagrophytes) is 4 µg/mL (≈ 5.67 µM); with Trichophyton tonsurans (Trichophyton tonsurans) it was 4 µg/mL (≈ 5.67 µM); in the experiment with Trichophyton rubrum (Trichophyton rubrum, MIC at which 90% of the isolates were inhibited), 4 µg/mL (≈ 5.67 µM). In addition, in the experiment on Trichophyton tonsurans, the “MIC Range, Trichophyton tonsurans” value fell in the range of 0.25 to 4 µg/mL. Further, the “MIC Range, Trichophyton rubrum” value in the experiment with Trichophyton rubrum lay within 0.25 to 4 µg/mL. Besides, in the experiment with Microsporum gypseum, the “MIC Range, Microsporum gypseum” value is 1 to 8 µg/mL. For the same molecule, the “MIC Range, Epidermophyton floccosum” value against Epidermophyton floccosum was in the range of 0.063 to 0.5 µg/mL. For the same molecule, the “MIC Range, Trichophyton soudanense” value against Trichophyton soudanense lay in the range of 1 to 4 µg/mL.

The values above are taken from patent US20100016367A1, “BIS-PYRINIDIUM COMPOUNDS” (priority 2006, published 2010).
